Test results: the supplement of paper PMC11061612

What was measured:
Assay in all cases: Bliss excess, mean over the matrix (fraction); higher = more synergy
[1] = tested on: KLE (Endometrial Carcinoma)
How it was run: (§1)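 Bliss excess equals the observed combination effect minus the expected value EA + EB − EA·EB, where EA and EB are the effects of each agent alone. Combination Emax is the second-highest inhibition within the matrix. Inhibition was scaled from CellTiter-Glo 2.0 luminescence, with 0 set by vehicle wells and 1 by blank wells, after 72 hours of two-drug dosing of cells plated in 1536-well plates.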

[2] = tested on: KYSE-50 (Esophageal Squamous Cell Carcinoma)
How it was run: as §1

NB7 (Neuroblastoma) = tested on: NB7 (Neuroblastoma)
How it was run: as §1

[3] = tested on: KINGS-1 (Low Grade Glioma)
How it was run: as §1

[4] = tested on: LC4-1 (B-Lymphoblastic Leukemia)
How it was run: as §1

EW-13 (Ewing's Sarcoma) = tested on: EW-13 (Ewing's Sarcoma)
How it was run: as §1

[5] = tested on: NCI-N87 (Gastric Carcinoma)
How it was run: as §1

[6] = tested on: SCC-9 (Oral Cavity Carcinoma)
How it was run: as §1

[7] = tested on: NCI-H1573 (Lung Adenocarcinoma)
How it was run: as §1

[8] = tested on: SNU-C1 (Colorectal Carcinoma)
How it was run: as §1

[9] = tested on: NCI-H2405 (Lung Adenocarcinoma)
How it was run: as §1

A704 (Kidney Carcinoma) = tested on: A704 (Kidney Carcinoma)
How it was run: as §1

[10] = tested on: JHH-7 (Hepatocellular Carcinoma)
How it was run: as §1

[11] = tested on: SCC-3 (B-Cell Non-Hodgkin's Lymphoma)
How it was run: as §1

EW-18 (Ewing's Sarcoma) = tested on: EW-18 (Ewing's Sarcoma)
How it was run: as §1

[12] = tested on: OCUB-M (Breast Carcinoma)
How it was run: as §1

[13] = tested on: NCI-H322M (Lung Adenocarcinoma)
How it was run: as §1

[14] = tested on: NCI-H513 (Other Solid Carcinomas)
How it was run: as §1

[15] = tested on: OVISE (Ovarian Carcinoma)
How it was run: as §1

| Structure (SMILES) | Bliss excess [1] | Bliss excess [2] | Bliss excess (NB7 (Neuroblastoma)) | Bliss excess [3] | Bliss excess [4] | Bliss excess (EW-13 (Ewing's Sarcoma)) | Bliss excess [5] | Bliss excess [6] | Bliss excess [7] | Bliss excess [8] | Bliss excess [9] | Bliss excess (A704 (Kidney Carcinoma)) | Bliss excess [10] | Bliss excess [11] | Bliss excess (EW-18 (Ewing's Sarcoma)) | Bliss excess [12] | Bliss excess [13] | Bliss excess [14] | Bliss excess [15] |
| --- | --- | --- | --- | --- | --- | --- | --- | --- | --- | --- | --- | --- | --- | --- | --- | --- | --- | --- | --- |
| CN(C)CCCOc1ccc(-c2ccc3ncc4c(c3c2)n(C2CCOCC2)c(=O)n4C)cn1 [AZD0156] + C=CCn1c(=O)c2cnc(Nc3ccc(N4CCN(C)CC4)cc3)nc2n1-c1cccc(C(C)(C)O)n1 [AZD1775] (first compound max 1 µM, partner max 1 µM) | 0.0559 | -0.0116 | -0.0198 | -0.0779 | -0.0353 | 0.0215 | -0.0181 | -0.036 | -0.0537 | -0.0401 | -0.0544 | -0.0484 | -0.0412 | -0.0162 | -0.0245 | -0.0958 | -0.0027 | 0.001 | -0.0374 |
| CN(C)CCCOc1ccc(-c2ccc3ncc4c(c3c2)n(C2CCOCC2)c(=O)n4C)cn1 [AZD0156] + CCN(CCO)CCCOc1ccc2c(Nc3cc(CC(=O)Nc4cccc(F)c4)[nH]n3)ncnc2c1 [AZD2811] (first compound max 1 µM, 7x7, partner max 1 µM) | -0.0232 | -0.0128 | -0.0082 | -0.0173 | -0.108 | 0.009 | 0.0046 | -0.014 | -0.0157 | -0.0245 | -0.0241 | -0.039 | -0.0296 | 0.112 | -0.0219 | -0.0736 | -0.0448 | -0.0019 | -0.0314 |
| CN(C)CCCOc1ccc(-c2ccc3ncc4c(c3c2)n(C2CCOCC2)c(=O)n4C)cn1 [AZD0156] + C[C@@H]1COCCN1C2=NC(=NC(=C2)C3(CC3)[S@](=N)(=O)C)C4=C5C=CNC5=NC=C4 [AZD6738] (first compound max 1 µM, 7x7, partner max 10 µM) | -0.0567 | 0.0101 | 0.0348 | -0.0474 | -0.0743 | 0.0006 | -0.0286 | -0.0424 | -0.0098 | 0.0001 | -0.0027 | -0.0067 | 0.0082 | 0.0521 | 0.0047 | -0.026 | -0.0076 | 0.0235 | 0.0317 |
| C=CCn1c(=O)c2cnc(Nc3ccc(N4CCN(C)CC4)cc3)nc2n1-c1cccc(C(C)(C)O)n1 [AZD1775] + C[C@@H]1COCCN1C2=NC(=NC(=C2)C3(CC3)[S@](=N)(=O)C)C4=C5C=CNC5=NC=C4 [AZD6738] (first compound max 1 µM, partner max 10 µM) | -0.0361 | 0.0328 | -0.025 | -0.0475 | -0.0011 | 0.0217 | -0.0824 | -0.0425 | 0.0215 | 0.0303 | -0.0039 | -0.0022 | 0.0273 | 0.0428 | -0.0198 | 0.0642 | -0.0234 | -0.0058 | -0.0399 |
| C=CCn1c(=O)c2cnc(Nc3ccc(N4CCN(C)CC4)cc3)nc2n1-c1cccc(C(C)(C)O)n1 [AZD1775] + O=C(c1cc(Cc2n[nH]c(=O)c3ccccc23)ccc1F)N1CCN(C(=O)C2CC2)CC1 [Olaparib] (first compound max 1 µM, partner max 10 µM) | -0.0499 | -0.0206 | -0.0171 | -0.0777 | 0.0226 | -0.0801 | -0.046 | -0.0027 | -0.0251 | -0.0721 | -0.0675 | -0.0396 | -0.0398 | -0.0259 | -0.0742 | -0.0211 | -0.0222 | -0.0399 | -0.0084 |
| CCN(CCO)CCCOc1ccc2c(Nc3cc(CC(=O)Nc4cccc(F)c4)[nH]n3)ncnc2c1 [AZD2811] + C=CCn1c(=O)c2cnc(Nc3ccc(N4CCN(C)CC4)cc3)nc2n1-c1cccc(C(C)(C)O)n1 [AZD1775] (first compound max 1 µM, partner max 1 µM) | -0.0513 | 0.0006 | 0.0497 | -0.0173 | -0.109 | 0.0393 | -0.0657 | -0.0179 | -0.0457 | -0.0321 | -0.021 | -0.0547 | -0.0186 | -0.011 | -0.134 | 0.0312 | -0.0188 | -0.0195 | -0.0332 |
| CCN(CCO)CCCOc1ccc2c(Nc3cc(CC(=O)Nc4cccc(F)c4)[nH]n3)ncnc2c1 [AZD2811] + C[C@@H]1COCCN1C2=NC(=NC(=C2)C3(CC3)[S@](=N)(=O)C)C4=C5C=CNC5=NC=C4 [AZD6738] (first compound max 1 µM, 7x7, partner max 10 µM) | -0.0262 | -0.051 | 0.0084 | -0.112 | -0.0882 | -0.0257 | -0.0855 | -0.0594 | -0.0613 | -0.122 | -0.0526 | -0.0087 | -0.048 | 0.0411 | -0.0831 | -0.107 | -0.0484 | -0.0145 | -0.0542 |
| CCN(CCO)CCCOc1ccc2c(Nc3cc(CC(=O)Nc4cccc(F)c4)[nH]n3)ncnc2c1 [AZD2811] + O=C(c1cc(Cc2n[nH]c(=O)c3ccccc23)ccc1F)N1CCN(C(=O)C2CC2)CC1 [Olaparib] (first compound max 1 µM, 7x7, partner max 10 µM) | -0.282 | 0.0397 | 0.0598 | -0.0579 | -0.0598 | -0.0532 | 0.0237 | -0.0188 | -0.016 | -0.0016 | -0.0075 | -0.0195 | 0.0118 | 0.0494 | -0.0534 | -0.0413 | -0.0063 | -0.0203 | -0.0255 |
